Test results as given in publication PMC10552397 (Cell Communication and Signaling : CCS, 2023).
Values joined by “and” are separate entries in the source; they are usually repeats but may differ in a detail not shown here. Identical values can stand only once.

Molecular target: T1, proteins of HeLa wt cells (Homo sapiens, UniProt P30837)
T1 sequence (P30837 18-517): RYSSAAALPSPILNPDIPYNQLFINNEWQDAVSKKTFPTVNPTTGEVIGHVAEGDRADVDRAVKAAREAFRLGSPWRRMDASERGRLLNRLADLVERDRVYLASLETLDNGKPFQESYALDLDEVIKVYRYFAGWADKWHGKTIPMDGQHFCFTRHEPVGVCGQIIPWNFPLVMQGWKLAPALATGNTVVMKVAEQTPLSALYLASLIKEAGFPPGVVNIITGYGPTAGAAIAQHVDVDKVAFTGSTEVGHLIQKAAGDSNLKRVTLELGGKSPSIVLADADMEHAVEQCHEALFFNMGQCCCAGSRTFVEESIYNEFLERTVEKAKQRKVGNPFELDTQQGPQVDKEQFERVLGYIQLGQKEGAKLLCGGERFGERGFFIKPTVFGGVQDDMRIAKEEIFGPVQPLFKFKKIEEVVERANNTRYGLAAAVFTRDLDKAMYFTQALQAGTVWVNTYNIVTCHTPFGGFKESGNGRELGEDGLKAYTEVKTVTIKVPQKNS
Assay: biochemical
Conditions: for normalized.Reporter.intensity: single replicates n1-n3
Protocol: Adherent cells were washed in the dish once with DPBS and harvested by Trypsin–EDTA (0.25%, Thermo Fisher Scientific, Waltham, MA, USA, #25,200,056) treatment. After addition of 35 mL DPBS, the cells were pelleted by centrifugation (300 rcf, 5 min, 4 °C), and washed twice by re-suspending and pelleting using 45 mL and 1 mL DPBS, respectively, to remove excess trypsin and for transfer into pre-weighed 2 mL Eppendorf tubes to determine the cell pellet wet weights as quality check after centrifugation (300 rcf, 5 min, 4 °C) and complete removal of the supernatant. Cells for TPP-TR were resuspended using 1 mL, and cells for TPP-CCR were resuspended using 0.4 mL ice-cold DPBS, respectively, supplemented with protease inhibitor cocktail (Roche, Basel, Switzerland, #5,892,791,001). […] Cell suspensions were shortly centrifuged (1 s or less) using a benchtop centrifuge to release trapped air and to achieve an even liquid level without pelleting the cells. The samples were then temperature treated by a 7 min pre-incubation at RT, 3 min temperature treatment in the PCR cycler (DNA Engine Tetrad 2, lid temperature 70 °C) at different temperatures (37 °C or 50 °C for TPP-CCR or the temperatures given in Table 2 for TPP-TR) and a 3 min post-incubation at RT in a metal heating block for uniform heat dissipation.
After temperature treatment, samples were supplemented with lysis buffer (final concentrations: 0.36 U/µL benzonase, 1.5 mM MgCl2, 1 mM Na3VO4, 10 mM NaF, 2.5 mM Na4P2O7, 0.8% w/v NP-40) for 1 h on ice. The lysates were cleared from cell debris as well as denatured and precipitated proteins by centrifugation at 20,000 rcf and 4 °C for 30 min. The total protein concentration of the resulting cell extracts containing the fraction of soluble, non-denatured proteins was determined (Pierce 660 nm Protein Assay, BSA as standard). Cell extracts were shock frozen in liquid nitrogen and stored at -80 °C. The three replicates for TPP-TR and TPP-CCR were prepared on consecutive days, respectively. The two (37 °C or 50 °C) x ten (concentrations) x three (replicates) = 60 TPP-CCR samples and two (treatment and control) x ten (temperatures) x three (replicates) = 60 TPP-TR samples were analyzed by LC–MS/MS. GRASP55 was additionally quantified from the TPP-TR samples by immunoblotting as described in the respective section.
For TPP-CCR, SP3 was performed as described with slight modifications to the original protocol using on average 5 µg total protein per sample and resulting in theoretically 5 µg peptides in 22 µL 50 mM triethylammonium bicarbonate per sample. For each of the two (treatment and control) x three (replicates) = six TPP-TR temperature treatment sample sets, the same volume for each of the ten temperature samples was used for SP3 processing, thus, maintaining the information about the temperature dependent non-denatured protein content. This volume was calculated such that the lowest two temperature samples (36.5 °C and 41.2 °C) contained 10 µg total protein on average. The samples were diluted using SDS containing buffer (20 µL final, final concentrations: 7.5% glycerol, 3% SDS, 37.5 mM Tris/HCl pH 7.0) and the proteins were reduced, alkylated, and precipitated on the solid phase as described using adjusted volumes (2 × due to processing 10 µg instead of 5 µg). Volumes for washing of the aggregated proteins on the solid phase and for tryptic digestion were kept unchanged, however, to maintain the maximal total protein to trypsin/Lys-C ratio at 50:1 in the two rounds of digestion (13 h and 4 h), respectively, 2 × 0.2 µg trypsin/Lys-C was used per sample, theoretically resulting in at most about 10 µg peptides in 22 µL 50 mM triethylammonium bicarbonate.

CCCCCC1=C/C(=C/c2[nH]c(-c3ccc[nH]3)cc2OC)N=C1C [Prodigiosin, prodigiosin]
EC50: 4.37 nM
diff pseudoR2(50-37°C) (ALDH1B1): 0.88
pseudoR2 (dose response curve fit, 37°C) (ALDH1B1, 37°C): 0.0136
normalized.Reporter.intensity (ALDH1B1, 37°C, 0.0976562 nM prodigiosin): -0.04 and -1.95 and 1.19
normalized.Reporter.intensity (ALDH1B1, 37°C, 0.390625 nM prodigiosin): 0.86 and 1.70 and 1.19
normalized.Reporter.intensity (ALDH1B1, 37°C, 1.5625 nM prodigiosin): 1.45 and -0.51 and 0.96
normalized.Reporter.intensity (ALDH1B1, 37°C, 6.25 nM prodigiosin): 2.17 and -0.34 and 2.41
normalized.Reporter.intensity (ALDH1B1, 37°C, 25 nM prodigiosin): 1.79 and 0.42 and 0.87
normalized.Reporter.intensity (ALDH1B1, 37°C, 100 nM prodigiosin): -0.83 and -1.09 and 2.36
normalized.Reporter.intensity (ALDH1B1, 37°C, 400 nM prodigiosin): -1.07 and -1.13 and 1.65
normalized.Reporter.intensity (ALDH1B1, 37°C, 1600 nM prodigiosin): -1.06 and 0.17 and 2.67
normalized.Reporter.intensity (ALDH1B1, 37°C, 6400 nM prodigiosin): -0.10 and 1.67 and -1.95
H (dose response curve fit parameters, 37°C) (ALDH1B1, 37°C, Hill slope of fit): 1.47e-8
pseudoR2 (dose response curve fit, 50°C) (ALDH1B1, 50°C): 0.89
normalized.Reporter.intensity (ALDH1B1, 50°C, 0.0976562 nM prodigiosin): 0.23 and -0.0339 and 0.17
normalized.Reporter.intensity (ALDH1B1, 50°C, 0.390625 nM prodigiosin): 0.32 and 0.04 and 0.17
normalized.Reporter.intensity (ALDH1B1, 50°C, 1.5625 nM prodigiosin): 0.40 and 0.42 and 0.21
normalized.Reporter.intensity (ALDH1B1, 50°C, 6.25 nM prodigiosin): 0.69 and 0.56 and 0.41
normalized.Reporter.intensity (ALDH1B1, 50°C, 25 nM prodigiosin): 0.66 and 0.74 and 0.67
normalized.Reporter.intensity (ALDH1B1, 50°C, 100 nM prodigiosin): 1.06 and 0.92 and 1.01
normalized.Reporter.intensity (ALDH1B1, 50°C, 400 nM prodigiosin): 0.70 and 0.97 (2×)
normalized.Reporter.intensity (ALDH1B1, 50°C, 1600 nM prodigiosin): 0.78 and 0.95 and 0.92
normalized.Reporter.intensity (ALDH1B1, 50°C, 6400 nM prodigiosin): 1.11 and 0.90 and 1.01
H (dose response curve fit parameters, 50°C) (ALDH1B1, 50°C, Hill slope of fit): 0.60
